These results are taken from US20130252983A1, “ACTIVATING PHOSPHORYLATION SITE ON GLUTAMINASE C” (CORNELL UNIVERSITY, priority 2010, published 2013).

In assay [1] the test system is NIH 3T3 cells stably expressing Cdc42(F28L) and transiently expressing mouse GAC. As to the kind of experiment: Focus formation of Cdc42(F28L) cells transiently expressing GAC. In kind it is cell-based. From the text: FIGS. 4A-E illustrate the role of glutaminase C activity in cellular transformation. […] Data represent the average of 3 experiments (±s.d.). […] Data represent the average of 3 experiments (±s.d.). […] 100% represents the activity measured in untreated Dbl-transformed cells. The data represent the average of 2 experiments. […] 100% represents the activity measured in untreated SKBR3 cells. The data represent the average of 2 experiments. […] Data represent the average of 3 experiments (±s.d.).

For assay [2], the system named is NIH 3T3 cells expressing oncogenic Dbl. As to the kind of experiment: Dbl-induced cellular transformation (focus formation, growth in low serum, soft agar). In kind it is cell-based, mouse. How it is done:
FIGS. 1A-E illustrate that the small molecule 968 inhibits cellular transformation. […] Cells were fixed and stained with crystal violet for counting of foci. Right: 968 was serially diluted (10, 5, 2.5, and 1.25 μM) and evaluated for its ability to inhibit focus formation. […] After 6 days, the cells were counted. 100% represents the number of Dbl-transformed cells counted in the absence of 968 (27.5×10^4 cells). Data represent the average of 3 experiments (±s.d.). […] At the indicated times, the cells were counted. Data represent the average of 3 experiments (±s.d.).
FIGS. 2A-G illustrate effects of 968 on the transforming activity of constitutively active Rho GTPases and human breast cancer cells. […] Cells were scored after 14 days and plotted as the percentage of the total number of colonies greater than 50 μm in diameter. Data represent the average of 3 experiments (±s.d.). […] Data represent the average of 3 experiments (±s.d.). […] Data represent the average of 3 experiments (±s.d.). […] After 24 hours at 37° C., the migratory cells were fixed, stained with GIEMSA, and counted. Data represent the average of 3 experiments (±s.d.). […] Data represent the average of 3 experiments (±s.d.). […] Data represent the average of 3 experiments (±s.d.). […] Data represent the average of 3 experiments (±s.d.).
FIGS. 5A-C illustrate comparative abilities of 968 and other benzo[a]phenanthridinones to inhibit the transforming activity of oncogenic Dbl and H-Ras. […] Histograms show the relative levels of Dbl-induced focus formation for the different treatments, compared to Dbl-induced focus formation measured in the presence of DMSO (i.e. solvent control). Data represent the average of 3 experiments (mean±s.d.). […] Histograms show the relative levels of Ras(G12V)-induced focus formation measured for the different treatments, compared to Ras(G12V)-induced focus formation measured in the presence of DMSO (solvent control). Data represent the average of 3 experiments (mean±s.d.). FIG. 5C NIH 3T3 cells stably expressing H-Ras(G12V) that were cultured in DMEM supplemented with 1% calf serum, with the indicated amounts of 968. After 6 days, cells are trypsinized and counted. 100% represents the number of cells counted in the absence of 968, i.e. 26×10^4 cells. Data represent the average of 3 experiments (mean±s.d.).

Consider `CN(C)c1ccc(C2Nc3ccc4ccccc4c3C3=C2C(=O)CC(C)(C)C3)cc1Br` (stereo not shown) [Compound 968, 5-[3-bromo-4-(dimethylamino)phenyl]-2,2-dimethyl-2,3,5,6-tetrahydrobenzo[a]], for which the focus-forming activity entry in assay [1] was “can be blocked”. Moreover, in assay [2] (10 μM), the “Dbl-induced colony formation in soft agar” value was “blocked”. Besides, the “potency against Dbl-induced transformation compared to oncogenic H-Ras” value in assay [2] (focus formation in NIH 3T3 cells or growth in low serum) is “more potent inhibitor of Dbl-induced transformation”. Further, the “concentration at which active in blocking Dbl-induced transformation” value in assay [2] (focus-forming assays or growth in low serum) lay within 1 to 10 µM.
